The source of these data is US7196114B2, “Substituted 3-(benzoylureido) thiophene derivatives, processes for preparing them and their use” (Sanofi-Aventis Deutschland GmbH, priority 2003, dated 2007).

Data set [1] deals with T1, human glycogen phosphorylase a (Homo sapiens, UniProt P06737).
T1 sequence (P06737 1-847): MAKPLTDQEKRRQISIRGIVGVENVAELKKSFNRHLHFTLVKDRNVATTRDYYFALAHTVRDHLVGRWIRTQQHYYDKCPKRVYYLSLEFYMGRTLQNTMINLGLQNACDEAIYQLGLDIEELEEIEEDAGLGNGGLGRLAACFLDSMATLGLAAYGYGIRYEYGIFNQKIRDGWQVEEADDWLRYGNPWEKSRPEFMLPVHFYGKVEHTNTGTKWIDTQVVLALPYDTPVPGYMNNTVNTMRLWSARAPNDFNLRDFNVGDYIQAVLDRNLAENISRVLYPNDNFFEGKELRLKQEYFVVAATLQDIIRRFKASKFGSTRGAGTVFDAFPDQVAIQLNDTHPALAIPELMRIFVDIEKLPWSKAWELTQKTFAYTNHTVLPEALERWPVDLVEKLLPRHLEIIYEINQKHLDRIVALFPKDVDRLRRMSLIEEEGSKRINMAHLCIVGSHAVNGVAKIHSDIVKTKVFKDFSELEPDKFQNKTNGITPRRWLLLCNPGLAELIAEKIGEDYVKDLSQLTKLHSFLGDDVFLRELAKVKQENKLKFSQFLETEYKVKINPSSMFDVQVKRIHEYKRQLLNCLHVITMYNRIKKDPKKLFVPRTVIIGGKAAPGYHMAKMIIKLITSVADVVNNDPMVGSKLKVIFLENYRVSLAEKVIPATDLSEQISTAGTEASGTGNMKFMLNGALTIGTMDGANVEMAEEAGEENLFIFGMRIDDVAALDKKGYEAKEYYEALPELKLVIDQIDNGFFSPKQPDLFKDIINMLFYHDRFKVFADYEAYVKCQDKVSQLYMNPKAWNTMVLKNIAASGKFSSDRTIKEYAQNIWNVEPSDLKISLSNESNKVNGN
The experiment in a line: Glycogen phosphorylase a activity test. It is filed as biochemical. The settings on record: inhibition of GPa in vitro, reverse direction (glycogen synthesis from glucose 1-phosphate, released inorganic phosphate, absorption at 820 nm).

In the case of `O=C(NC(=O)c1cc(F)c(F)cc1Cl)Nc1ccsc1-c1n[nH]c(=O)o1` [Example 1d, 1-(2-Chloro-4,5-difluorobenzoyl)-3-[2-(5-oxo-4,5-dihydro[1,3,4]oxadiazol-2-yl)thiophen-3-yl]urea], the melting point turned out to be 236.1 °C. Further, the IC50 in data set [1] amounted to 30 nM. For `Nc1nnc(-c2sccc2NC(=O)NC(=O)c2cc(F)c(F)cc2Cl)o1` [Example 2c, 1-[2-(5-Amino[1,3,4]oxadiazol-2-yl)thiophen-3-yl]-3-(2-chloro-4,5-difluorobenzoyl)urea], the IC50 in data set [1] turned out to be 450 nM. Compound `O=C(NC(=O)c1cc(F)c(F)cc1Cl)Nc1cc(-c2ccc(F)cc2)sc1C(=O)O` [Example 3b, 3-[3-(2-Chloro-4,5-difluorobenzoyl)ureido]-5-(4-fluorophenyl)thiophene-2-carboxylic acid] gave a melting point of 227.7 °C. Further, the concentration for half-maximal inhibition (IC50) in data set [1] amounted to 10 nM. `O=C(NC(=O)c1cc(F)c(F)cc1Cl)Nc1cc(S(=O)(=O)N2CCCCC2)sc1N1CCC(C(=O)O)CC1` [Example 4d, 1-[3-[3-(2-Chloro-4,5-difluorobenzoyl)ureido]-5-(piperidine-1-sulfonyl)-thiophen-2-yl]piperidine-4-carboxylic acid] registered a melting point of 219.9 °C. In addition, in data set [1], the IC50 is 110 nM. Consider `NC(=O)c1sccc1NC(=O)NC(=O)c1cc(F)c(F)cc1Cl` [Example 6], for which the IC50 in data set [1] was 700 nM. `CC(=O)c1sc(-c2ccccc2)cc1NC(=O)NC(=O)c1cc(F)c(F)cc1Cl` [Example 15] gave a melting point of 204.8 °C. In data set [1], the IC50 amounted to 170 nM. On to `NC(=O)c1sc(-c2ccccc2)cc1NC(=O)NC(=O)c1cc(F)c(F)cc1Cl` [Example 17], for which the melting point is > 300 °C. For the same compound, the IC50 in data set [1] worked out at 30 nM. In turn, `O=C(NC(=O)c1cc(F)c(F)cc1Cl)Nc1cc(-c2ccccc2)sc1C(=O)O` [Example 21] gave a melting point of 226.5 °C. Further, the IC50 in data set [1] is 10 nM. On to `NC(=O)c1sc(-c2cccs2)cc1NC(=O)NC(=O)c1cc(F)c(F)cc1Cl` [Example 23], for which the melting point was > 250 °C (dec.). Also, the IC50 in data set [1] was determined as 50 nM. Take `COc1ccc(-c2cc(NC(=O)NC(=O)c3cc(F)c(F)cc3Cl)c(C(N)=O)s2)cc1` [Example 24]: the melting point is > 300 °C. Besides, in data set [1], the IC50 stood at 40 nM. Consider `O=C(NC(=O)c1cc(F)c(F)cc1Cl)Nc1cscc1-c1ccccc1` [Example 30], for which the IC50 in data set [1] came out at 1400 nM. Compound `O=C(NC(=O)c1ccc(F)cc1Cl)Nc1ccsc1-c1nnn[nH]1` [Example 33] gave a melting point of 219.8 °C. For the same compound, the IC50 in data set [1] came out at 80 nM.
